# Assay results published in ChEMBL document CHEMBL2074550, “Carbamazepine is not a substrate for P-glycoprotein” (Br J Clin Pharmacol, 2001).
# Columns and labels:
# [1] = target: T1, ATP-dependent translocase ABCB1 (Homo sapiens, UniProt P08183); test: TP_TRANSPORTER: inhibition of Rhodamine 123 efflux (R123: 1.5 ug/mL, Carbamazepine: 100 uM) in human lymphocytes; assay type: functional, cell-based; settings: lymphocyte
# [2] = target: P-glycoprotein 1 and 3 (MDR1a/MDR1b) (Mus musculus, UniProt P21447+P06795); test: TP_TRANSPORTER: no change in brain concentration in mdr1a/1b(-/-) mouse; assay type: functional, organism-based; settings: in vivo
# [3] = target: T1, ATP-dependent translocase ABCB1; test: TP_TRANSPORTER: transepithelial transport (basal to apical) in Caco-2 cells; assay type: functional, cell-based
# T1 sequence (P08183 whole entry): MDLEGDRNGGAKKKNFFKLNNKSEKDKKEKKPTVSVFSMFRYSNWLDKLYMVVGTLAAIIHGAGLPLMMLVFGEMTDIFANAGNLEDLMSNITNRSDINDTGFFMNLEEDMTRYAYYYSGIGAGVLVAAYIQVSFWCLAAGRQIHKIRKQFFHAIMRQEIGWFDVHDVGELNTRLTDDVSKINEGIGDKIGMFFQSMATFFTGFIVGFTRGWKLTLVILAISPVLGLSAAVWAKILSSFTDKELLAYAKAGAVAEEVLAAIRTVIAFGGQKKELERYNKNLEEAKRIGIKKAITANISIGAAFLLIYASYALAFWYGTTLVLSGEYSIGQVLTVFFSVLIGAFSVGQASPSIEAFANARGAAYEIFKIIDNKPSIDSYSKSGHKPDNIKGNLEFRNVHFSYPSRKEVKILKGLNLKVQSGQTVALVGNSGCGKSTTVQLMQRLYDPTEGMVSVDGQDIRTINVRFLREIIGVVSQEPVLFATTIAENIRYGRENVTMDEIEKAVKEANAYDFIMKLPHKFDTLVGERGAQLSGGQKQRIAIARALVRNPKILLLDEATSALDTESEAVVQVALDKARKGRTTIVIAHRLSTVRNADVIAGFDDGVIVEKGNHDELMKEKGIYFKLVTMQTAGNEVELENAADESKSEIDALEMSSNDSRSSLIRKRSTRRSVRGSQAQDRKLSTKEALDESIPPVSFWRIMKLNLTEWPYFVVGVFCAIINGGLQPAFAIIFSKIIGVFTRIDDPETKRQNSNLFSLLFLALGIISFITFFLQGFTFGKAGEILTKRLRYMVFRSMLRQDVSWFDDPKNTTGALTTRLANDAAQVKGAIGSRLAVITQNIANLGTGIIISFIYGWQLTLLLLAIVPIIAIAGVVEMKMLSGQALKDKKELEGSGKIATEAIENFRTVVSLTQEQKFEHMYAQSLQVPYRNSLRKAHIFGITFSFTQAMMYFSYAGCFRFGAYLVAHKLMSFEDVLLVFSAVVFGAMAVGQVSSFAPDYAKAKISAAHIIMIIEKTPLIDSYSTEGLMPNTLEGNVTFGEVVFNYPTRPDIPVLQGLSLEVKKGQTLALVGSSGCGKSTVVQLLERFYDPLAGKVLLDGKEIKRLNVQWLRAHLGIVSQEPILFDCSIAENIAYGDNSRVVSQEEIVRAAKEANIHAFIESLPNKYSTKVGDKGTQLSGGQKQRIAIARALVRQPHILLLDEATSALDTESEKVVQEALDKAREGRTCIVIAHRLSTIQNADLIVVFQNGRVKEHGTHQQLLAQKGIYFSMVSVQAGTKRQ
structure (smiles),measurement,setting,value
NC(=O)N1c2ccccc2C=Cc2ccccc21 [CARBAMAZEPINE],Activity,[1],is not an inhibitor [-]
same,Activity,[2],is not a substrate [-]
same,Activity,[3],is not a substrate [-]
